Results reported in ChEMBL document CHEMBL5316345, “Discovery of the Potent and Selective MC4R Antagonist PF-07258669 for the Potential Treatment of Appetite Loss” (J Med Chem, 2023).
Calls of active or inactive are those of the source. The rule behind the calls is not given here.

Tests used:
Melanocortin receptor 3 = Melanocortin receptor 3 (Homo sapiens, UniProt P41968); assay: Displacement of [125I]-NDP-alpha-MSH from human MC3R expressed in CHO cells measured for 2 hrs by microbeta counter analysis; assay type: cell-based
[1] = biological target: Melanocyte-stimulating hormone receptor (Homo sapiens, UniProt Q01726); assay: Agonist activity at human MC1R expressed in CHO cells assessed as increase in alpha-MSH induced cAMP level measured for 60 mins; assay type: functional, cell-based
Chain of Melanocyte-stimulating hormone receptor (Q01726 whole entry, looked up): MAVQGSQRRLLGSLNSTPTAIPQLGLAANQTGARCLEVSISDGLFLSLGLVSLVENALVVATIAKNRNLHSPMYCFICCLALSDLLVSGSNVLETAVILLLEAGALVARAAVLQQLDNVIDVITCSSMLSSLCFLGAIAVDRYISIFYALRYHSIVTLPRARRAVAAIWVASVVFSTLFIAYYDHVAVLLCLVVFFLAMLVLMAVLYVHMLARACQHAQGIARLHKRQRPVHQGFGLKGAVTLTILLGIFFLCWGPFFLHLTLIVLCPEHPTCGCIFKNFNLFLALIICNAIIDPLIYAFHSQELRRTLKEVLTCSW

[2] = Clearance in Wistar Han rat plasma at 1 mg/kg, iv measured at 0.033 to 24 hrs by LC-MS/MS analysis; assay type: ADME, organism-based; conditions: time 0.033-24 hrs
[3] = Clearance in Beagle dog plasma at 1 mg/kg, iv measured at 0.033 to 24 hrs by LC-MS/MS analysis; assay type: ADME, organism-based, Canis lupus familiaris; conditions: time 0.033-24 hrs
[4] = Volume of distribution at steady state in Wistar Han rat at 1 mg/kg, iv measured at 0.033 to 24 hrs by LC-MS/MS analysis; assay type: ADME, organism-based; conditions: in vivo, time 0.033-24 hrs, read-out: Vdss
[5] = Volume of distribution at steady state in Beagle dog at 1 mg/kg, iv measured at 0.033 to 24 hrs by LC-MS/MS analysis; assay type: ADME, organism-based, Canis lupus familiaris; conditions: in vivo, time 0.033-24 hrs, read-out: Vdss
[6] = Half life in Beagle dog at 1 mg/kg, iv measured at 0.033 to 24 hrs by LC-MS/MS analysis; assay type: ADME, organism-based, Canis lupus familiaris; conditions: in vivo, time 0.033-24 hrs
[7] = Half life in Beagle dog at 1 mg/kg, po measured at 0.25 to 24 hrs by LC-MS/MS analysis; assay type: ADME, organism-based, Canis lupus familiaris; conditions: in vivo, time 0.25-24 hrs
[8] = Tmax in Wistar Han rat at 5 mg/kg, po measured at 0.083 to 24 hrs by LC-MS/MS analysis; assay type: ADME, organism-based; conditions: in vivo, time 0.083-24 hrs
[9] = Tmax in Beagle dog at 1 mg/kg, po measured at 0.25 to 24 hrs by LC-MS/MS analysis; assay type: ADME, organism-based, Canis lupus familiaris; conditions: in vivo, time 0.25-24 hrs
[10] = Cmax in Wistar Han rat at 5 mg/kg, po measured at 0.083 to 24 hrs by LC-MS/MS analysis; assay type: ADME, organism-based; design: dose 5 mg/kg, time upper 24 hrs, time lower 0.083 hrs, route po; conditions: in vivo
[11] = AUC (0 to infinity) in Beagle dog at 1 mg/kg, po measured at 0.25 to 24 hrs by LC-MS/MS analysis; assay type: ADME, organism-based, Canis lupus familiaris; design: time upper 24 hrs, time lower 0.25 hrs, dose 1 mg/kg, route po; conditions: in vivo
Mus musculus [12] = assay: Effect on body weight in anorexia/cachexia mouse model assessed as body weight gain administered twice a day for 20 days and measured at 1 to 21 days; assay type: functional, organism-based; conditions: dose 0.3-10 mg/kg, time 1-21 day
Mus musculus [13] = assay: Effect on body weight in anorexia/cachexia mouse model assessed as cumulative body weight gain at 0.3 mg/kg, po administered twice a day for 20 days and measured at 1 to 21 days; assay type: functional; conditions: time 1-21 day
Mus musculus [14] = assay: Effect on body weight in anorexia/cachexia mouse model assessed as reduction in cumulative food intake at 1 mg/kg, po administered twice a day for 20 days and measured at 1 to 21 days; assay type: functional; design: scale not given: the % may be the effect or the level left; conditions: time 1-21 day
[15] = biological target: Dual specificity calcium/calmodulin-dependent 3',5'-cyclic nucleotide phosphodiesterase 1B (Homo sapiens, UniProt Q01064); assay: Inhibition of human PDE1B1
Chain of Dual specificity calcium/calmodulin-dependent 3',5'-cyclic nucleotide phosphodiesterase 1B (Q01064 whole entry): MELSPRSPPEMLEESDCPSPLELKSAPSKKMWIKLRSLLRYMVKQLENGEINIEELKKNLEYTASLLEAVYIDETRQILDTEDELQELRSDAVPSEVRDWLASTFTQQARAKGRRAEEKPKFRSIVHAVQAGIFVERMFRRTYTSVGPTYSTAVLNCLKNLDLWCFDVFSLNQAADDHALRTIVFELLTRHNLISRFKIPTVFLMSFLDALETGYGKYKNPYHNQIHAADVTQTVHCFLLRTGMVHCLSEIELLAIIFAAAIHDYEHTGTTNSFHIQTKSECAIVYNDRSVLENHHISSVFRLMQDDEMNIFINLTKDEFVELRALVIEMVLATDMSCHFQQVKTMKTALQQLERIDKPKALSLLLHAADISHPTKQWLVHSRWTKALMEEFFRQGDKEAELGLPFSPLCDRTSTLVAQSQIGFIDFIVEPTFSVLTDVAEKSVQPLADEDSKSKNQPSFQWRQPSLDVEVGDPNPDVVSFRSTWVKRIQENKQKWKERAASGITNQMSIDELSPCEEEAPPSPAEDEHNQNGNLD

[16] = biological target: cGMP-inhibited 3',5'-cyclic phosphodiesterase 3A (Homo sapiens, UniProt Q14432); assay: Inhibition of human PDE3A
Chain of cGMP-inhibited 3',5'-cyclic phosphodiesterase 3A (Q14432 whole entry): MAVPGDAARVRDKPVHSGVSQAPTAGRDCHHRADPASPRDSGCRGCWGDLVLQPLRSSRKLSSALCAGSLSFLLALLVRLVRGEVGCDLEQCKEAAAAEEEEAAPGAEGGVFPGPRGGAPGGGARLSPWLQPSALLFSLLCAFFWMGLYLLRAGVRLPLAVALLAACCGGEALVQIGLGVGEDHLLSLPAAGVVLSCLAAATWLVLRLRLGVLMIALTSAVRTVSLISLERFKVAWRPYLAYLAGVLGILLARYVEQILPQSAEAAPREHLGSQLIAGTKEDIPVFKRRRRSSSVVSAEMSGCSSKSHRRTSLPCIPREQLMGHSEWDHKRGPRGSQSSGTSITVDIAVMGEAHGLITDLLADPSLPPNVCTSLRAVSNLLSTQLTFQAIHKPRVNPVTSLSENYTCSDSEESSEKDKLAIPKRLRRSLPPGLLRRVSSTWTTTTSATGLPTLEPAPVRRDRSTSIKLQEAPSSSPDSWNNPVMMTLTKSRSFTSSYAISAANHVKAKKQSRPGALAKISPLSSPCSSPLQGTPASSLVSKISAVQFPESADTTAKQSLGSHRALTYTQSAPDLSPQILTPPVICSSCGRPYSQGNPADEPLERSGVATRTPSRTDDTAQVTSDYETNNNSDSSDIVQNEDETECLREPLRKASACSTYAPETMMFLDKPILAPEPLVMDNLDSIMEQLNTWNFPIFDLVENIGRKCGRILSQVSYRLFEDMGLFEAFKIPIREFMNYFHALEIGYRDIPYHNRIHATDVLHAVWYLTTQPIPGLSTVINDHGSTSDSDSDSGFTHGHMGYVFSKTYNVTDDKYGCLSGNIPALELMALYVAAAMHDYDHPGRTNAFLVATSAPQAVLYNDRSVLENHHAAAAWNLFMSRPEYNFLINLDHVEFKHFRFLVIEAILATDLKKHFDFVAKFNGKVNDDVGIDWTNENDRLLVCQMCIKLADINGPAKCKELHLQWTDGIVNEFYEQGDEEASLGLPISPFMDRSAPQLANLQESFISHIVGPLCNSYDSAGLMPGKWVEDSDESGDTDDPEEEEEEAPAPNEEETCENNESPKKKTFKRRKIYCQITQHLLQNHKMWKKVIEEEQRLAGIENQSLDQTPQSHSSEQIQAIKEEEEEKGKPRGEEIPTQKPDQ

[17] = biological target: High affinity cAMP-specific and IBMX-insensitive 3',5'-cyclic phosphodiesterase 8B (Homo sapiens, UniProt O95263); assay: Inhibition of human PDE8B
Chain of High affinity cAMP-specific and IBMX-insensitive 3',5'-cyclic phosphodiesterase 8B (O95263 whole entry): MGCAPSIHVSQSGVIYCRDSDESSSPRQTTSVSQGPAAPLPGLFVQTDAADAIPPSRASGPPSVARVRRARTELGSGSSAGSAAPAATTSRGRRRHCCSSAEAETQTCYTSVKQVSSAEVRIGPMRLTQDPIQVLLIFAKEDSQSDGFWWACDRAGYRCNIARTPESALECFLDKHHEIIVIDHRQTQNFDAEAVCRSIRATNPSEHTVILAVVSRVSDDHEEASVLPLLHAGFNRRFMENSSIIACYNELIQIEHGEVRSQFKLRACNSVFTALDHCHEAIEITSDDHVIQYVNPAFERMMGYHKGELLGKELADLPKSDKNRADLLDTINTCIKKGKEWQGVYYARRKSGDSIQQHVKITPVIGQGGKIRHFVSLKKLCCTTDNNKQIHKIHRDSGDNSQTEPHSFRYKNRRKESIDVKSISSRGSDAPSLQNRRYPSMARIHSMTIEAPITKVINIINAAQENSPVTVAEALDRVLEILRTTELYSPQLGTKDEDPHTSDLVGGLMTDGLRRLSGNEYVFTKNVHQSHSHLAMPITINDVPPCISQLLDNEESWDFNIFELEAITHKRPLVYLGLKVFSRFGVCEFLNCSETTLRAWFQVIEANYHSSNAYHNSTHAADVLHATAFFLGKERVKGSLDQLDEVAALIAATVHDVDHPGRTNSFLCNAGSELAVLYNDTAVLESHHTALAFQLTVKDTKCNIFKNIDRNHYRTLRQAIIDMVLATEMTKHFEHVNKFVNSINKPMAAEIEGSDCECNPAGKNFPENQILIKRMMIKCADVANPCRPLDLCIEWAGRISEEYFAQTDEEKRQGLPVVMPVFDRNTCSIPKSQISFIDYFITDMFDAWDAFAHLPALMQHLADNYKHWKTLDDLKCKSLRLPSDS

[18] = biological target: Sodium channel protein type 5 subunit alpha (Homo sapiens, UniProt Q14524); assay: Inhibition of recombinant human Nav1.5 expressed in CHO cells by whole cell voltage clamp electrophysiology recording; assay type: cell-based
Chain of Sodium channel protein type 5 subunit alpha (Q14524 whole entry): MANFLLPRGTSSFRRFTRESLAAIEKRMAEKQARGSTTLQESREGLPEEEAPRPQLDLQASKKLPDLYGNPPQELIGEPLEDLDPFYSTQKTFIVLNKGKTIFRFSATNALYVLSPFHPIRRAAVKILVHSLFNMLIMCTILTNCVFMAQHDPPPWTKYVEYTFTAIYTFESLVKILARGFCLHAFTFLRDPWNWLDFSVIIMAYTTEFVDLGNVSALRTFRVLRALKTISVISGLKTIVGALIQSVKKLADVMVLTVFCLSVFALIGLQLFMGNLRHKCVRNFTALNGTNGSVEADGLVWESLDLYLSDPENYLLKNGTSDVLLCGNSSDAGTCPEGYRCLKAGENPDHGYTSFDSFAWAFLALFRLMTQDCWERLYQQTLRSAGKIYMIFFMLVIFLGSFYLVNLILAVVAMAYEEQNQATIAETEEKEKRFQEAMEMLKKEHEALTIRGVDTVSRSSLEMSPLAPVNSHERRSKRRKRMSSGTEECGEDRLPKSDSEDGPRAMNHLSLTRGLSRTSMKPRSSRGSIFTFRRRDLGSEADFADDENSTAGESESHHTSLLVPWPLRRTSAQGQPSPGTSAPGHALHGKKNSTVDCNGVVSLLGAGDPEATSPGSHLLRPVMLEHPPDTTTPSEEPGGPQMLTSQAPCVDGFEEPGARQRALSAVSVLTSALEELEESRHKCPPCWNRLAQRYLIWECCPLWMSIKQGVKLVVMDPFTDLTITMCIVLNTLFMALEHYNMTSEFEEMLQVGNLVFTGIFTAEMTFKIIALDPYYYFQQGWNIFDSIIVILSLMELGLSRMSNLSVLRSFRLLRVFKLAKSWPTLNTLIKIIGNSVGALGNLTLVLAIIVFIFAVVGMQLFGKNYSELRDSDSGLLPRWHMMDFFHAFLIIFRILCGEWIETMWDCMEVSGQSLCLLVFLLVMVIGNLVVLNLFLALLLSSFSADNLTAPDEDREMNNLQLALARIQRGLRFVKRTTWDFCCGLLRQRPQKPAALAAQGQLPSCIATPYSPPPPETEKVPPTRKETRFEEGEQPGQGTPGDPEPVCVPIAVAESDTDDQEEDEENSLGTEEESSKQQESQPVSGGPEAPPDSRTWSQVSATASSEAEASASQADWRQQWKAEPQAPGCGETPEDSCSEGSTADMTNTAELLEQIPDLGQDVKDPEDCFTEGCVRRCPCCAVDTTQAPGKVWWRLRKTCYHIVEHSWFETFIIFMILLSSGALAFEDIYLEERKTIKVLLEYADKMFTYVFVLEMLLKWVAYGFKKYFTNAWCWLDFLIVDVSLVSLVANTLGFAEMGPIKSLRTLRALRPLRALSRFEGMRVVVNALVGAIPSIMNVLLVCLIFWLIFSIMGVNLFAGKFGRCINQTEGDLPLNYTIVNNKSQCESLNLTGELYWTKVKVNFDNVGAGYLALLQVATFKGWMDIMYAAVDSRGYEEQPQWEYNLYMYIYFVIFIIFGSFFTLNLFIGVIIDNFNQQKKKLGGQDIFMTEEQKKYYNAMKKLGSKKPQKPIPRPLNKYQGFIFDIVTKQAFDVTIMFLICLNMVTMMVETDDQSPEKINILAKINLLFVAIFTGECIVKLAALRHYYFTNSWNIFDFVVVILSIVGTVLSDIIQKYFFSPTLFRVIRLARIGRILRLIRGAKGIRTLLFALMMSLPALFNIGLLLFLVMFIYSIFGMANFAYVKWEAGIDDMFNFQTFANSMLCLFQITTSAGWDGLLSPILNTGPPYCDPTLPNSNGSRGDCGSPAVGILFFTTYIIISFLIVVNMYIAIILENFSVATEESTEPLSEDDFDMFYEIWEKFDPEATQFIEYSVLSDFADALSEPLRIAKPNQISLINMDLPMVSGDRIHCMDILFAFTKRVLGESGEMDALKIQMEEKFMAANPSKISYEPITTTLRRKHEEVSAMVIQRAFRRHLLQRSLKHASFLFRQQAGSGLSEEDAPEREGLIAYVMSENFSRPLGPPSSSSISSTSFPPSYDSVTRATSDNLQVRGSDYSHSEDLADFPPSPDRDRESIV

Ki (Melanocortin receptor 3): 340 nM
Activity [1]: inactive
clearance [2]: 21 mL/min/kg
clearance [3]: 11 mL/min/kg
Vd [4]: 0.95 L/kg
Vd [5]: 1.3 L/kg
half-life [6]: 138 min
half-life [7]: 216 min
Tmax [8]: 30 min
Tmax [9]: 22.8 min
Cmax [10]: 600 ng/mL
AUC [11]: 4610 ng·h/mL
IC50 [15]: > 50 µM
IC50 [16]: > 50 µM
IC50 [17]: > 50 µM
SMILES: COc1cc([C@@H](C)C(=O)N2CC[C@@]3(COc4cc(-c5ncccn5)c(C)nc4N3)C2)c(F)cn1
Activity (Mus musculus [12]): Dose-Dependent Effect
Activity (Mus musculus [13]): 2%
Activity (Mus musculus [14]): 26%
IC50 [18]: > 100 µM
